According to patent publication US4956355A, “Agents for the arrest and therapy of retroviral infections” (Colthurst Limited, priority 1987, dated 1990):

Assays:
[1] = system: HIV in VB T lymphoma cell line; assay: Inhibition of HIV mediated cytopathic effects (multinucleated giant/syncytial cell formation) in acutely infected VB tumor cell line; assay type: cell-based
Experimental: (§1) 1. […] All three viral strains were grown in the Tissue Culture Laboratory of the AIDS Activity Division of San Francisco General Hospital where titers of […] infectious units per ml were routinely achieved.
(§2) 2. Source of cells: The VB cell line used in Example 1 is a T lymphoma cell line that is highly susceptible to infection with HIV, and expresses high levels of cell surface CD4 molecules. This cell line forms syncytia within two days after infection with all strains of HIV tested to date. […] This is used to quantitate infection in the absence of syncytial formation, infection being quantitated by immunofluorescence assays. The HXB/H9 cell line (Example 6) is an H9 cell population that chronically produces the HTLV-IIIB strain of HIV and is utilised in experiments testing antiviral effects on chronically infected cell lines. Human macrophages were prepared from peripheral blood mononuclear cells either obtained from the blood bank as a buffy coat, or as a leukophoresis preparation. Crowe et al. supra have devised an assay system that allows quantitation of HIV infection, and inhibition of infection using immunocytofluorographic analysis. In order to quantitate HIV infection in macrophages, they grow macrophages in Teflon (Trade Mark) culture vessels which maintain macrophages in suspension in vitro culture for up to six months. Cell surface and cytoplasmic immunofluorescence staining is then performed to quantitate antigens in macrophages by flow cytometry.
5. Inhibition of acute infection: Several assays were utilized to test for inhibition of acute infection; these included:
(a) Inhibition of multinucleated giant cell formation in acutely infected VB cells infected at a multiplicity of infection of 1, and scored two days after infection in the presence or absence of varying concentrations of drug, for the formation of multinucleated giant cells. (free virus is washed out after a one hour incubation pretreatment at room temperature). […] Supernatants were also isolated and the level of HIV p24 antigen determined. Infectious virus was measured in treated cultures by performing a syncytial assay as described above.
Compounds A and B were tested for inhibition of T lymphoma cell cytopathic effect at various drug concentrations after acute infection with HIV for 48 hours. […] It is possible that the diminished effects noted in later experiments could have been secondary to drug stability problems.

HIV in HXB/H9 cell line = assay: Antiviral testing of chronically HIV infected cell line HXB; assay type: cell-based; conditions: other than killing with compound B at 10^-4 molar
Experimental: as §1
as §2, with “Human macrophages were prepared from peripheral blood mononuclear cells either obtained from the blood bank as a buffy coat, or as a leukophoresis preparation.” left out, “cytometry. […]” for “cytometry.”

[2] = system: HIV in chronically infected human macrophages; assay: Antiviral testing of chronically HIV infected macrophages; assay type: cell-based
Source text: as §2
3. Flow cytometry: An Ortho Cytofluorgraf II-S (Trade Mark) that has a biohazard containment flow cell was used for analysis of HIV infected samples. HIV p24 antigens were detected utilizing a mouse monoclonal anti-p24 (du Pont), and mouse antibodies were identified utilizing an FITC conjugated goat anti-mouse IgG.
6. Analysis of chronically infected cells: To determine whether compounds A and B are effective at inhibiting HIV expression in macrophages and chronically infected T cells, the following experiments were performed. The chronically infected T cell line, HXB/H9 was exposed to various concentrations of drug for four days in vitro. At four days, the HXB cells were assayed for the presence of p24 intracytoplasmically, and supernatants were assayed for the presence of infectious virus as described above.
Because macrophages can be infected and produce HIV for very long periods of time without substantial loss of viability, chronically infected cells were tested, specifically a population that was between 30 and 50% HIV antigen positive, for inhibition of cytoplasmic HIV p24 antigen production. FIG. 5 indicates the results of three separate experiments carried out.

HIV = assay: Use of dehydroepiandrosterone in AIDS therapy, twelve patients; assay type: in vivo, human patients
Experimental: (§3) Twelve patients all of whom were sero-positive for HIV and had been diagnosed as suffering from AIDS were treated with DHEA for up to six months. The DHEA was administered in the form of hard gelatin capsules containing 100 mg of DHEA and at a rate of 100 mg to 600 mg per day. The vast majority being on 500 mg per day in divided doses. The patients were all homosexual or bisexual males with an average age of 34.5 years and an average weight of 69.6 kg.
Past and present HIV clinical manifestations included: unexplained diarrhoea, Kaposis Sarcoma, Herpes Zoster, Oral Candidiasis, Lymphadenopathy, Oral Hairy Leucoplakia, involuntary weight loss, dermal mycoses and Stapholococcal skin infections.
All of the patients were in an advanced stage of AIDS at the commencement of the trial and normally further deterioration of their condition, or even death, would have been expected over the six month period of the trial. […] Patient 7 gained 8 kg over five months.

[3] = Safety of dehydroepiandrosterone in subjects; assay type: in vivo, human
Experimental: as §3

[4] = system: human peripheral blood mononuclear (PBM) cells infected with Epstein-Barr virus; conditions: cited from earlier work
NADH oxidase = conditions: cited from earlier work
mitotic activity = conditions: cited from earlier work
[5] = system: permeability of membranes; conditions: cited from earlier work
complement activation = conditions: cited from earlier work
[6] = murine model of SLE; cited from earlier work
[7] = in vivo; cited from earlier work

## C[C@]12CC[C@H](O)CC1=CC[C@@H]1[C@@H]2CC[C@]2(C)C(=O)CC[C@@H]12 [A, dehydroepiandrosterone]
[1]; acute infection
  antiviral effects in comparison with AZT, T lymphoma cells: inferior
[1]; acute infection, conclusions
  antiviral effect in acute infection studies of T lymphoma cells: mild antiviral effect
[1]; compounds diluted in DMSO, possibly secondary to drug stability problems
  inhibition of cytopathic effect in two subsequent experiments: less striking effect
HIV in HXB/H9 cell line
  inhibition of HIV production of cytopathic effects in chronically infected lymphoma cell line: no specific inhibition
[2]; 10^-4 and 10^-5 molar, FIG. 5 vs FIG. 4
  inhibition compared with inhibition of acute infection of macrophages: somewhat less than the inhibition of acute infection of macrophages
[2]; both 10^-4 and 10^-5 molar, three experiments, FIG. 5
  inhibition of cytoplasmic HIV p24 antigen production in chronically infected macrophages: some inhibition
HIV; of twelve patients, up to six months
  patients gaining weight: four
HIV; oral, 100 mg to 600 mg per day, up to six months, twelve advanced AIDS patients
  deterioration in condition: no serious deterioration in condition
HIV; over five months
  weight gain of Patient 7: 8 kg
[3]; general statement
  toxicity in treatment of patients infected with HIV: virtual absence of toxicity
[3]; twelve subjects, daily doses of up to 600 mg for up to six months
  adverse physical, biochemical or hematological effects: complete lack of adverse physical, biochemical or hematological effects
[4]
  concentrations reducing colony forming ability: 10 to 100 µM
NADH oxidase
  effect on NADH oxidase: inhibitory effect
Mitotic activity
  effect on mitotic activity: inhibitory effect
[5]
  effect on permeability of membranes: inhibitory effect
Complement activation
  complement activation: inhibits complement activation
[6]
  autoantibody formation: prevents autoantibody formation
[7]
  metabolic disorders and liver cirrhosis: suppress some of the metabolic disorders and liver cirrhosis
  pain in ischemic heart disease, especially angina pectoris: reduces pain
